Source: ChEMBL document CHEMBL1201862, “PubChem BioAssay data set” (2004)
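Following 48 hours of exposure in 96-well plates, responses at five concentrations were used to interpolate endpoints linearly. The concentration for 50% growth inhibition is given as GI50.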 The source made the active and inactive calls. Cut-off read from the data, not from the text of the source: active = GI50 up to about 1.1 µM and inactive = higher.

Legend:
Assay in all cases: NCI anticancer screen, dose series, 48 h
[1] = test system: CCRF-CEM
[2] = test system: M14
[3] = test system: MOLT-4
[4] = test system: SK-OV-3
[5] = test system: SK-MEL-28
[6] = test system: SF-539
[7] = test system: Malme-3M
[8] = test system: HCT-116
[9] = test system: UACC-257
[10] = test system: UACC-62
[11] = test system: HCC 2998
[12] = test system: EKVX
[13] = test system: OVCAR-4
[14] = test system: RXF 393
[15] = test system: NCI-H460
[16] = test system: SF-268
[17] = test system: OVCAR-8
[18] = test system: OVCAR-3
[19] = test system: NCI-H23
[20] = test system: 786-0
[21] = test system: COLO 205
[22] = test system: NCI/ADR-RES
[23] = test system: K562
[24] = test system: HL-60
[25] = test system: A549
[26] = test system: Hs-578T
[27] = test system: SK-MEL-5
[28] = test system: KM12
[29] = test system: SNB-75
[30] = test system: T47D
[31] = test system: HT-29
[32] = test system: HOP-92
[33] = test system: IGROV-1
[34] = test system: ACHN
[35] = test system: DU-145
[36] = test system: HOP-62
[37] = test system: U-251
[38] = test system: RPMI-8226
[39] = test system: NCI-H522
[40] = test system: MDA-MB-435
[41] = test system: TK-10
[42] = test system: SK-MEL-2
[43] = test system: SNB-19
[44] = test system: NCI-H226
[45] = test system: LOX IMVI
[46] = test system: SN12C
[47] = test system: SW-620
[48] = test system: SF-295
[49] = test system: HCT-15
[50] = test system: MDA-N
[51] = test system: BT-549
[52] = test system: MDA-MB-231
[53] = test system: CAKI-1
[54] = test system: PC-3
[55] = test system: OVCAR-5

For `NC(=S)NS(=O)(=O)c1ccc(F)cc1`, the GI50 [1] was > 100 µM (inactive), the GI50 [2] was > 100 µM (inactive) and the GI50 [3] was > 100 µM (inactive). For the same compound, the GI50 [4] was > 100 µM (inactive), the GI50 [5] was > 100 µM (inactive) and the GI50 [6] was > 100 µM (inactive). For the same compound, the GI50 [7] was > 100 µM (inactive), the GI50 [8] was > 100 µM (inactive) and the GI50 [9] was > 100 µM (inactive). For the same compound, the GI50 [10] was > 100 µM (inactive), the GI50 [11] was > 100 µM (inactive) and the GI50 [12] was > 100 µM (inactive). The GI50 [13] was > 100 µM (inactive), the GI50 [14] was > 100 µM (inactive) and the GI50 [15] was > 100 µM (inactive). For the same compound, the GI50 [16] was > 100 µM (inactive), the GI50 [17] was > 100 µM (inactive) and the GI50 [18] was > 100 µM (inactive). The GI50 [19] was > 100 µM (inactive), the GI50 [20] was > 100 µM (inactive) and the GI50 [21] was > 100 µM (inactive). The GI50 [22] was > 100 µM (inactive), the GI50 [23] was > 100 µM (inactive) and the GI50 [24] was > 100 µM (inactive). For the same compound, the GI50 [25] was > 100 µM (inactive), the GI50 [26] was > 100 µM (inactive) and the GI50 [27] was > 100 µM (inactive). For the same compound, the GI50 [28] was > 100 µM (inactive), the GI50 [29] was > 100 µM (inactive) and the GI50 [30] was > 100 µM (inactive). The GI50 [31] was > 100 µM (inactive), the GI50 [32] was > 100 µM (inactive) and the GI50 [33] was > 100 µM (inactive). For the same compound, the GI50 [34] was > 100 µM (inactive), the GI50 [35] was > 100 µM (inactive) and the GI50 [36] was > 100 µM (inactive). For the same compound, the GI50 [37] was > 100 µM (inactive), the GI50 [38] was > 100 µM (inactive) and the GI50 [39] was > 100 µM (inactive). The GI50 [40] was > 100 µM (inactive), the GI50 [41] was > 100 µM (inactive) and the GI50 [42] was > 100 µM (inactive). The GI50 [43] was > 100 µM (inactive), the GI50 [44] was > 100 µM (inactive) and the GI50 [45] was > 100 µM (inactive). For the same compound, the GI50 [46] was > 100 µM (inactive), the GI50 [47] was > 100 µM (inactive) and the GI50 [48] was > 100 µM (inactive). For the same compound, the GI50 [49] was over 100 µM, the GI50 [50] was > 100 µM (inactive) and the GI50 [51] was > 100 µM (inactive). For the same compound, the GI50 [52] was > 100 µM (inactive), the GI50 [53] was > 100 µM (inactive) and the GI50 [54] was > 100 µM (inactive). The GI50 [55] was > 100 µM (inactive).
